According to ChEMBL document CHEMBL4118135, “Optimized allosteric inhibition of engineered protein tyrosine phosphatases with an expanded palette of biarsenical small molecules” (Bioorg Med Chem, 2018):
Numbering of substitutions follows the chain as printed. The source made the active and inactive calls. The rule behind the calls is not given here.

Columns and labels:
[1] = molecular target: T1, Tyrosine-protein phosphatase non-receptor type 1 (Homo sapiens) (UniProt P18031); assay: Binding affinity to His6-tagged human wild-type PTP1B catalytic domain overexpressed in Escherichia coli crude cell lysate at 6.66 uM incubated for 90 mins by SDS-PAGE and LC-MS/MS method
T1 sequence (whole entry): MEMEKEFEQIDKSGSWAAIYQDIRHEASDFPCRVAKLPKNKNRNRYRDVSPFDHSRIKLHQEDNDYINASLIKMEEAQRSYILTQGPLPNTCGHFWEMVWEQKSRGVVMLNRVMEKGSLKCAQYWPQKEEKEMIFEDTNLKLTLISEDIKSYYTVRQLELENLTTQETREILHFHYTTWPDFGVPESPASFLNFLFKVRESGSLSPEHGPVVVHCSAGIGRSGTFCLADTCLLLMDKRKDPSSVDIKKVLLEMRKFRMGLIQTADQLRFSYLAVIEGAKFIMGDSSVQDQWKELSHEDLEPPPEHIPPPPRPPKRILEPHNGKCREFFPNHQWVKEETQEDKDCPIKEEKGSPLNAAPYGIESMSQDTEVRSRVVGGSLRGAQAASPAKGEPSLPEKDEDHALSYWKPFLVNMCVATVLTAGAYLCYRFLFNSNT

[2] = molecular target: Tyrosine-protein phosphatase non-receptor type 6 (Homo sapiens) (UniProt P29350); assay: Inhibition of allosterically sensitized mutant form of His6-tagged human SHP1 catalytic domain using pNPP as substrate after 120 mins by quenched phosphatase activity assay
Tyrosine-protein phosphatase non-receptor type 6 (Homo sapiens), sequence (P29350 whole entry, the tested form may be a part): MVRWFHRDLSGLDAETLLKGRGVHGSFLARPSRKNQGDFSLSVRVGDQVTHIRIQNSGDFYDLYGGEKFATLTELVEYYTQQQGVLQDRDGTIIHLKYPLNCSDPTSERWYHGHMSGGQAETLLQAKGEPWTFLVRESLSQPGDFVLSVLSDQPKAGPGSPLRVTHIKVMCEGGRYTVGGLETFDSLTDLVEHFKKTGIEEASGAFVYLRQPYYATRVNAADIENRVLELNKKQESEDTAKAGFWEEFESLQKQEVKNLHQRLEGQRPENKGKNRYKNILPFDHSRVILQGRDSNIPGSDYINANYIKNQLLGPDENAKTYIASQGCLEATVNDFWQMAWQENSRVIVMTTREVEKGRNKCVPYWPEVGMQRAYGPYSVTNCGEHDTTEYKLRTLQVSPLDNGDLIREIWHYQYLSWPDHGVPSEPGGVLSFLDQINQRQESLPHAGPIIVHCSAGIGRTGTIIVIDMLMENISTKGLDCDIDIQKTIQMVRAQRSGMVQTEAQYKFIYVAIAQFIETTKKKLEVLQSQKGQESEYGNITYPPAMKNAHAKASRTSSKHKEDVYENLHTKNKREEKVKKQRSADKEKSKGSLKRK

[3] = molecular target: Tyrosine-protein phosphatase non-receptor type 1 (Homo sapiens, UniProt P18031, A122C/P87C); assay: Inhibition of allosterically sensitized His6-tagged human PTP1B catalytic domain P87C/A122C mutant overexpressed in Escherichia coli crude cell lysate using pNPP as substrate incubated for 90 mins by quenched phosphatase activity assay
Tyrosine-protein phosphatase non-receptor type 1, sequence (P18031 whole entry P87C/A122C, the tested form may be a part): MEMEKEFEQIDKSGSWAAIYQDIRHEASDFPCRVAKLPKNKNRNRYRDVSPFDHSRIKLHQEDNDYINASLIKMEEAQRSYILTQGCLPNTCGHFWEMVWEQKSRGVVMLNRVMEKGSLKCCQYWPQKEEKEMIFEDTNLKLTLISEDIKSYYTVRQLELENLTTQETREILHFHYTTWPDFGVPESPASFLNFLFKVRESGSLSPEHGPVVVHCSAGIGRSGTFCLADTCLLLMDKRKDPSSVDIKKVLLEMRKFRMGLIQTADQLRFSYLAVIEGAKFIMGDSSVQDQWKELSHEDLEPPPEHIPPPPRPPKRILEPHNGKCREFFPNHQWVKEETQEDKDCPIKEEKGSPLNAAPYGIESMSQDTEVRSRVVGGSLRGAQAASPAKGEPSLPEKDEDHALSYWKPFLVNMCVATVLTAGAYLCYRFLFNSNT

[4] = tested on: T2, Tyrosine-protein phosphatase non-receptor type 1 (Homo sapiens), P18031 [P87C,A122C]; assay: Inhibition of allosterically sensitized His6-tagged human PTP1B catalytic domain P87C/A122C mutant overexpressed in Escherichia coli BL21(DE3) cells using pNPP as substrate incubated for 90 mins by quenched phosphatase activity assay
T2 sequence (whole entry): T1 sequence (whole entry) with P87C, A122C

[5] = tested on: T2, Tyrosine-protein phosphatase non-receptor type 1 (Homo sapiens), P18031 [P87C,A122C]; assay: Inhibition of allosterically sensitized His6-tagged human PTP1B catalytic domain P87C/A122C mutant at 2000 nM using pNPP as substrate incubated for 10 to 40 mins by quenched phosphatase activity assay; conditions: TDE = time-dependent effect
[6] = tested on: T3, Tyrosine-protein phosphatase non-receptor type 7 (Homo sapiens), P35236 [P171C,V205C]; assay: Inhibition of allosterically sensitized mutant form of His6-tagged human HePTP catalytic domain overexpressed in Escherichia coli BL21(DE3) cells using pNPP as substrate incubated for 90 mins by quenched phosphatase activity assay
T3 sequence (whole entry): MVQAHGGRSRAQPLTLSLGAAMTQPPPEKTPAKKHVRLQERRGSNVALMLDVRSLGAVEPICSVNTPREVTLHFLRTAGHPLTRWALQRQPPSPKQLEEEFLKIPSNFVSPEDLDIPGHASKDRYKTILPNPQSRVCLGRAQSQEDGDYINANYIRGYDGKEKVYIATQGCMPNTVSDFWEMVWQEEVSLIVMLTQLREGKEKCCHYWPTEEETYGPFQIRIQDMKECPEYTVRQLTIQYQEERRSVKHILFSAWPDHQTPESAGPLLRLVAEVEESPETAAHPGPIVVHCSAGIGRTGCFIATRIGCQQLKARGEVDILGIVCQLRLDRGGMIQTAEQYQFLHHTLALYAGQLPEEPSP

[7] = molecular target: T4, Tyrosine-protein phosphatase non-receptor type 7 (Homo sapiens) (UniProt P35236); assay: Inhibition of His6-tagged human wild-type HePTP catalytic domain at 1 uM using pNPP as substrate incubated for 90 mins by quenched phosphatase activity assay
T4 sequence (whole entry): T3 sequence (whole entry) with C171P, C205V

[8] = tested on: Tyrosine-protein phosphatase non-receptor type 7 (Homo sapiens), P35236 [UNDEFINED MUTATION]; assay: Inhibition of Inhibition of allosterically sensitized mutant form of His6-tagged […] human HePTP catalytic domain overexpressed in Escherichia coli BL21(DE3) cells at 25 uM using pNPP as substrate incubated for 90 mins by quenched phosphatase activity assay
Tyrosine-protein phosphatase non-receptor type 7 (Homo sapiens), P35236 [UNDEFINED MUTATION], sequence (P35236 whole entry, looked up, stated change not applied, the tested form may be a part): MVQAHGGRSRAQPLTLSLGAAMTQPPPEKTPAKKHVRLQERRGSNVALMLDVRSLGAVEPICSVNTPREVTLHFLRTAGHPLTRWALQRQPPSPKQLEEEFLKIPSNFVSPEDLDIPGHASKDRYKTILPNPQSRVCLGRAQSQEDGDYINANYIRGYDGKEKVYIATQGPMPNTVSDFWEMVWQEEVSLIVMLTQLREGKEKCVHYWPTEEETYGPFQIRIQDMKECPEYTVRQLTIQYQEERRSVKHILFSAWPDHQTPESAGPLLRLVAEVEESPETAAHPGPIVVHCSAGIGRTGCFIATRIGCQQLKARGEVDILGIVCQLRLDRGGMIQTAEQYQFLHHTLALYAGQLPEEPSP

[9] = tested on: T3, Tyrosine-protein phosphatase non-receptor type 7 (Homo sapiens), P35236 [P171C,V205C]; assay: Binding affinity to allosterically sensitized mutant form of His6-tagged human HePTP catalytic domain overexpressed in Escherichia coli crude cell lysate at 25 to 100 uM using pNPP as substrate after 90 mins by SDS-PAGE and LC-MS/MS method
[10] = tested on: T3, Tyrosine-protein phosphatase non-receptor type 7 (Homo sapiens), P35236 [P171C,V205C]; assay: Inhibition of allosterically sensitized mutant form of His6-tagged human HePTP catalytic domain at 1 uM using pNPP as substrate measured up to 10 mins by quenched phosphatase activity assay
[11] = molecular target: Tyrosine-protein phosphatase non-receptor type 7 (Homo sapiens, UniProt P35236, P171C/V205C); assay: Inhibition of allosterically sensitized mutant form of His6-tagged human HePTP catalytic domain overexpressed in Escherichia coli crude cell lysate using pNPP as substrate incubated for 90 mins by quenched phosphatase activity assay
[12] = tested on: T3, Tyrosine-protein phosphatase non-receptor type 7 (Homo sapiens), P35236 [P171C,V205C]; assay: Inhibition of allosterically sensitized mutant form of His6-tagged human HePTP catalytic domain using pNPP as substrate incubated for 90 mins by quenched phosphatase activity assay
[13] = molecular target: T4, Tyrosine-protein phosphatase non-receptor type 7 (Homo sapiens); assay: Inhibition of His6-tagged human wild-type HePTP catalytic domain overexpressed in Escherichia coli BL21(DE3) cells at 100 uM using pNPP as substrate incubated for 90 mins by quenched phosphatase activity assay

SMILES	Activity [1]	inhibition [2]	IC50 [3] [nM]	inhibition [4]	inhibition [5]	inhibition [6]	inhibition [7]	inhibition [8]	Activity [9]	inhibition [10] [%]	IC50 [11] [nM]	inhibition [12]	inhibition [13]
CC1(C)C(/C=C/C=C2/N(CCCCS(=O)(=O)O)c3ccc([As]4SCCS4)cc3C2(C)C)=[N+](CCCCS(=O)(=O)O)c2ccc([As]3SCCS3)cc21	inactive	Dose-dependent effect	125	Dose-dependent effect	Tde								
O=C(O)c1ccccc1-c1c2ccc(=O)c([As]3SCCS3)c-2oc2c([As]3SCCS3)c(O)ccc12						Dose-dependent effect	inactive	Active	Active	50	250	Dose-dependent effect	inactive
